27 compounds from patent publication US9540392B2, “Thienopyrimidines” (BAYER PHARMA AKTIENGESELLSCHAFT, priority 2012, dated 2017) can be followed below.

SMILES strings stand for the structures.

The assay deals with T1, human full-length MKNK1 (Homo sapiens, UniProt Q9BUB5, T385D).
T1 construct: GST (N); purchased Carna Biosciences 02-145; host or cells: insect cells (baculovirus expression system)
T1 sequence (Q9BUB5 1-424 isoform Q9BUB5-2 T344D): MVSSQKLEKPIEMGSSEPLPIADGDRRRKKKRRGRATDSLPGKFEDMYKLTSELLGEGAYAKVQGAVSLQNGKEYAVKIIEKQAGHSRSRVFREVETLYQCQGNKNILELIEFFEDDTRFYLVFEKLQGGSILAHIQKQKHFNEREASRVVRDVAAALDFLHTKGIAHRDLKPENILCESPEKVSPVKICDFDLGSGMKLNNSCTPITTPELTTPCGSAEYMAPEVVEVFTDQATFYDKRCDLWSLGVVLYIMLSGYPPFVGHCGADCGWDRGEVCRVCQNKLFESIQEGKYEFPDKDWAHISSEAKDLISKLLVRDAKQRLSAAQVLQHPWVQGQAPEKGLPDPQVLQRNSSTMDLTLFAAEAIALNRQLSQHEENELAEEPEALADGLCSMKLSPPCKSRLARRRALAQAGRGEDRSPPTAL
Nature of the assay: MKNK1 kinase high ATP assay (TR-FRET). As to conditions: 2 mM ATP, after preincubation with MKNK1; read-out: MKNK1 IC50 (MKNK1 high ATP). The assay is classed as biochemical. The gist of the method:
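Compound was preincubated 15 min at 22° C. with MKNK1 in 50 mM HEPES pH 7.5, 5 mM MgCl2, 1.0 mM DTT, then the reaction ran 30 min at 22° C. with 2 mM ATP and 0.06 μM biotinylated peptide (final).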
Turning to `CCOc1cc2[nH]ncc2cc1Nc1ncnc2sc3c(c12)CCC(C(=O)N1CCOCC1)C3` (racemic) [Example 212, (RS)-{4-[(6-Ethoxy-1H-indazol-5-yl)amino]-5,6,7,8-tetrahydro[1]benzothieno[2,3-d]pyrimidin-7-yl}(morpholin-4-yl)methanone], the IC50 (usually the concentration at which inhibition is half-maximal) came out at 300 pM.

`CC(C)Oc1cc2[nH]ncc2cc1Nc1ncnc2sc3c(c12)CCC(C(=O)N1CCCCC1)C3` (racemic) [Example 213, (RS)-Piperidin-1-yl(4-{[6-(propan-2-yloxy)-1H-indazol-5-yl]amino}-5,6,7,8-tetrahydro[1]benzothieno[2,3-d]pyrimidin-7-yl)methanone]: the IC50 came out at 1500 pM.

Take `CCN(CCO)C(=O)C1CCc2c(sc3ncnc(Nc4cc5cn[nH]c5cc4OC(C)C)c23)C1` (racemic) [Example 214, (RS)—N-ethyl-N-(2-hydroxyethyl)-4-{[6-(propan-2-yloxy)-1H-indazol-5-yl]amino}-5,6,7,8-tetrahydro[1]benzothieno[2,3-d]pyrimidine-7-carboxamide]: the IC50 was found to be 300 pM. With `CC(C)Oc1cc2[nH]ncc2cc1Nc1ncnc2sc3c(c12)CCC(C(=O)N(C)C(C)C)C3` (racemic) [Example 215, (RS)—N-Methyl-N-(propan-2-yl)-4-{[6-(propan-2-yloxy)-1H-indazol-5-yl]amino}-5,6,7,8-tetrahydro[1]benzothieno[2,3-d]pyrimidine-7-carboxamide], the 50% inhibitory concentration (IC50) is 500 pM. In the case of `CC(C)Oc1cc2[nH]ncc2cc1Nc1ncnc2sc3c(c12)CCC(C(=O)N(C)CC(F)F)C3` (racemic) [Example 216, (RS)—N-(2,2-Difluoroethyl)-N-methyl-4-{[6-(propan-2-yloxy)-1H-indazol-5-yl]amino}-5,6,7,8-tetrahydro[1]benzothieno[2,3-d]pyrimidine-7-carboxamide] it was 500 pM; in that of `CCN(C)C(=O)C1CCc2c(sc3ncnc(Nc4cc5cn[nH]c5cc4OC(C)C)c23)C1` (racemic) [Example 217, (RS)—N-Ethyl-N-methyl-4-{[6-(propan-2-yloxy)-1H-indazol-5-yl]amino}-5,6,7,8-tetrahydro[1]benzothieno[2,3-d]pyrimidine-7-carboxamide], 1000 pM. In the case of `CC(C)Oc1cc2[nH]ncc2cc1Nc1ncnc2sc3c(c12)CCC(C(=O)N1CCOCC1)C3` (racemic) [Example 218, (RS)-Morpholin-4-yl(4-{[6-(propan-2-yloxy)-1H-indazol-5-yl]amino}-5,6,7,8-tetrahydro[1]benzothieno[2,3-d]pyrimidin-7-yl)methanone] it was 1200 pM; in that of `CC(C)Oc1cc2[nH]ncc2cc1Nc1ncnc2sc3c(c12)CCC(C(=O)N1CCC1)C3` (racemic) [Example 219, (RS)-Azetidin-1-yl(4-{[6-(propan-2-yloxy)-1H-indazol-5-yl]amino}-5,6,7,8-tetrahydro[1]benzothieno[2,3-d]pyrimidin-7-yl)methanone], 500 pM; in that of `CC(C)Oc1cc2[nH]ncc2cc1Nc1ncnc2sc3c(c12)CCC(C(=O)N(C)CC1CC1)C3` (racemic) [Example 220, (RS)—N-(Cyclopropylmethyl)-N-methyl-4-{[6-(propan-2-yloxy)-1H-indazol-5-yl]amino}-5,6,7,8-tetrahydro[1]benzothieno[2,3-d]pyrimidine-7-carboxamide], 600 pM. For the compound `CC(C)Oc1cc2[nH]ncc2cc1Nc1ncnc2sc3c(c12)CCC(C(=O)N1CCCC1)C3` (racemic) [Example 221, (RS)-(4-{[6-(Propan-2-yloxy)-1H-indazol-5-yl]amino}-5,6,7,8-tetrahydro[1]benzothieno[2,3-d]pyrimidin-7-yl)(pyrrolidin-1-yl)methanone], the IC50 came out at 700 pM. In the case of `CC(C)Oc1cc2[nH]ncc2cc1Nc1ncnc2sc3c(c12)CCC(C(=O)N1CC2(CCS2(=O)=O)C1)C3` (racemic) [Example 222, (RS)-(1,1-Dioxido-1-thia-6-azaspiro[3.3]hept-6-yl)(4-{[6-(propan-2-yloxy)-1H-indazol-5-yl]amino}-5,6,7,8-tetrahydro[1]benzothieno[2,3-d]pyrimidin-7-yl)methanone] it was 900 pM; in that of `CCOc1cc2[nH]ncc2cc1Nc1ncnc2sc3c(c12)CCC(C(=O)N1CCC1)C3` (racemic) [Example 223, (RS)-Azetidin-1-yl{4-[(6-ethoxy-1H-indazol-5-yl)amino]-5,6,7,8-tetrahydro[1]benzothieno[2,3-d]pyrimidin-7-yl}methanone], 1500 pM; in that of `CCOc1cc2[nH]ncc2cc1Nc1ncnc2sc3c(c12)CCC(C(=O)N(C)C(C)C)C3` (racemic) [Example 224, (RS)-4-[(6-Ethoxy-1H-indazol-5-yl)amino]-N-isopropyl-N-methyl-5,6,7,8-tetrahydro[1]benzothieno[2,3-d]pyrimidine-7-carboxamide], 600 pM.

Consider `CCOc1cc2[nH]ncc2cc1Nc1ncnc2sc3c(c12)CCC(C(=O)N(C)CCO)C3` (racemic) [Example 225, (RS)-4-[(6-Ethoxy-1H-indazol-5-yl)amino]-N-(2-hydroxyethyl)-N-methyl-5,6,7,8-tetrahydro[1]benzothieno[2,3-d]pyrimidine-7-carboxamide], for which the IC50 stood at 300 pM. In the case of `CCOc1cc2[nH]ncc2cc1Nc1ncnc2sc3c(c12)CCC(C(=O)N(C)CC(F)F)C3` (racemic) [Example 226, (RS)—N-(2,2-Difluoroethyl)-4-[(6-ethoxy-1H-indazol-5-yl)amino]-N-methyl-5,6,7,8-tetrahydro[1]benzothieno[2,3-d]pyrimidine-7-carboxamide] it was 700 pM; in that of `CCOc1cc2[nH]ncc2cc1Nc1ncnc2sc3c(c12)CCC(C(=O)N1CCCC1)C3` (racemic) [Example 228, (RS)-{4-[(6-Ethoxy-1H-indazol-5-yl)amino]-5,6,7,8-tetrahydro[1]benzothieno[2,3-d]pyrimidin-7-yl}(pyrrolidin-1-yl)methanone], 200 pM. As for `CCOc1cc2[nH]ncc2cc1Nc1ncnc2sc3c(c12)CCC(C(=O)N(C)CC)C3` (racemic) [Example 229, (RS)-4-[(6-Ethoxy-1H-indazol-5-yl)amino]-N-ethyl-N-methyl-5,6,7,8-tetrahydro[1]benzothieno[2,3-d]pyrimidine-7-carboxamide], the figure is 700 pM; as for `CC(C)Oc1cc2[nH]ncc2cc1Nc1ncnc2sc3c(c12)CCC(C(=O)N(C)CCO)C3` (racemic) [Example 230, (RS)—N-(2-Hydroxyethyl)-4-[(6-isopropoxy-1H-indazol-5-yl)amino]-N-methyl-5,6,7,8-tetrahydro[1]benzothieno[2,3-d]pyrimidine-7-carboxamide], 200 pM. As for `CCOc1cc2[nH]ncc2cc1Nc1ncnc2sc3c(c12)CCC(C(=O)N(CC)CCO)C3` (racemic) [Example 231, (RS)-4-[(6-Ethoxy-1H-indazol-5-yl)amino]-N-ethyl-N-(2-hydroxyethyl)-5,6,7,8-tetrahydro[1]benzothieno[2,3-d]pyrimidine-7-carboxamide], the figure is 300 pM.

Consider `COc1cc2[nH]ncc2cc1Nc1ncnc2sc3c(c12)CCC(C(=O)N(CCO)CCO)C3` (racemic) [Example 234, (RS)—N, N-Bis(2-hydroxyethyl)-4-[(6-methoxy-1H-indazol-5-yl)amino]-5,6,7,8-tetrahydro[1]benzothieno[2,3-d]pyrimidine-7-carboxamide], for which the IC50 was 400 pM.

For `CCOc1cc2[nH]ncc2cc1Nc1ncnc2sc3c(c12)CCC(C(=O)N(C)C1CC1)C3` (racemic) [Example 235, (RS)—N—Cyclopropyl-4-[(6-ethoxy-1H-indazol-5-yl)amino]-N-methyl-5,6,7,8-tetrahydro[1]benzothieno[2,3-d]pyrimidine-7-carboxamide], the IC50 came to 500 pM.

Take `CCOc1cc2[nH]ncc2cc1Nc1ncnc2sc3c(c12)CCC(C(=O)N(CC)C(C)C)C3` (racemic) [Example 236, (RS)-4-[(6-Ethoxy-1H-indazol-5-yl)amino]-N-ethyl-N-(propan-2-yl)-5,6,7,8-tetrahydro[1]benzothieno[2,3-d]pyrimidine-7-carboxamide]: the IC50 was determined as 2800 pM. As to `COc1cc2[nH]ncc2cc1Nc1ncnc2sc3c(c12)CCC(C(=O)N1CC(C#N)C1)C3` (racemic) [Example 237, (RS)-1-({4-[(6-Methoxy-1H-indazol-5-yl)amino]-5,6,7,8-tetrahydro[1]benzothieno[2,3-d]pyrimidin-7-yl}carbonyl)azetidine-3-carbonitrile], the IC50 was found to be 300 pM. In the case of `CCOc1cc2[nH]ncc2cc1Nc1ncnc2sc3c(c12)CCC(C(=O)N(C)C(C)(C)C)C3` (racemic) [Example 238, (RS)—N-tert-Butyl-4-[(6-ethoxy-1H-indazol-5-yl)amino]-N-methyl-5,6,7,8-tetrahydro[1]benzothieno[2,3-d]pyrimidine-7-carboxamide] it was 1500 pM; in that of `CCOc1cc2[nH]ncc2cc1Nc1ncnc2sc3c(c12)CCC(C(=O)N1CC2(COC2)C1)C3` (racemic) [Example 239, (RS)-{4-[(6-Ethoxy-1H-indazol-5-yl)amino]-5,6,7,8-tetrahydro[1]benzothieno[2,3-d]pyrimidin-7-yl}(2-oxa-6-azaspiro[3.3]hept-6-yl)methanone], 400 pM; in that of `CCOc1cc2[nH]ncc2cc1Nc1ncnc2sc3c(c12)CCC(C(=O)N(C)CC1CC1)C3` (racemic) [Example 240, (RS)—N-(Cyclopropylmethyl)-4-[(6-ethoxy-1H-indazol-5-yl)amino]-N-methyl-5,6,7,8-tetrahydro[1]benzothieno[2,3-d]pyrimidine-7-carboxamide], 1100 pM.

As for `CCOc1cc2[nH]ncc2cc1Nc1ncnc2sc3c(c12)CCC(C(=O)N1CCCC(C#N)C1)C3` (racemic) [Example 241, (RS)-1-({4-[(6-Ethoxy-1H-indazol-5-yl)amino]-5,6,7,8-tetrahydro[1]benzothieno[2,3-d]pyrimidin-7-yl}carbonyl)piperidine-3-carbonitrile], the IC50 came out at 400 pM.
